The results in this text go back to patent US20240041830A1, “CIRCULATING BIOMARKERS OF RESPONSE TO PD-1/PD-L1 BLOCKADE AND GSK-3 INHIBITION” (Brown University, priority 2022, published 2024).

Molecules are shown by their SMILES.

In one assay the test system is HCT-116. In words: Luminex 200 cytokine profiling of cell culture supernatant. Type of assay: cell-based, human. The following applies: 1 μM or 5 μM, forty-eight hours. The procedure:
(§1) Collection of cell culture supernatants used in cytokine measurements. Cells were plated at 3.5×10^4 cells in a 48-well plate (Thermo Fisher Scientific, Waltham, MA, USA) in complete medium and incubated at 37° C. with 5% CO2. At twenty-four hours after plating, almost all the tumor cells were adherent to the bottom of the flask and the complete medium was replaced with the drug-containing medium. Subsequently, the culture supernatants were collected after forty-eight hours of incubation and were frozen at −80° C. until the measurement of cytokines was performed. On the day of analysis, samples were thawed and centrifuged to remove cellular debris.
(§2) Human cytokine profiling. Human cell line culture supernatants were analyzed using an R&D systems Human Premixed Multi-Analyte Kit (R&D Systems, Inc., Minneapolis, MN, USA) and a Luminex 200 (RRID: SCR_018025) Instrument (LX200-XPON-RUO, Luminex Corporation, Austin, TX, USA) according to the manufacturer's instructions. Sample levels of TNF-α, 4-1BB/TNFRSF9/CD137, IL-8/CXCL8, Ferritin, IFN-β, IL-10, CCL2/JE/MCP-1, VEGF, CXCL13/BLC/BCA-1, IFN-γ, CCL20/MIP-3 α, CCL3/MIP-1 α, CCL22/MDC, CCL4/MIP-1 β, Fas Ligand/TNFSF6, IL-17/1L-17A, IL-2, BAFF/BLyS/TNFSF13B, GM-CSF, CXCLS/ENA-78, TRANCE/TNFSF11/RANK L, CXCL9/MIG, G-CSF, IFN-γ R1/CD119, VEGFR3/Flt-4, C-Reactive Protein/CRP, CXCL11/I-TAC, IL-21, CXCL14/BRAK, IL-6, Fas/TNFRSF6/CD95, TRAIL R3/TNFRSF10C, IL-4, CCL5/RANTES, PD-L1/137-H1, CCL7/MCP-3/MARC, Chitinase 3-like 1, CXCL10/IP-10/CRG-2, IL-1 μ/IL-1F2, IL-7, Prolactin, CCL8/MCP-2, TRAIL R2/TNFRSF10B, M-CSF, IL-15, Granzyme B, IFN-α, TREM-1, IL-12/1L-23 p40, TRAIL/TNFSF10, CCL11/Eotaxin, and 1L-18/1L-1F4. Quantitative analysis with 6 standards and a minimum of 50 counts per bead region was used with the Luminex to generate analyte values reported as picograms/milliliter (pg/mL). Sample concentrations less than the lower limit of detection for each particular analyte were recoded as the lower limit value divided by 10. Sample concentrations above the upper limit of detection for a particular analyte were recoded as the upper limit of detection.
(§3) Huntington, Louie, Zhou, & EI-Deiry, Oncotarget, 12, 1980-1991 (2021). The inventors in this EXAMPLE treated tumor cells (HCT-116, HT-29) with 1 μM or 5 μM elraglusib for forty-eight hours and subsequently analyzed the cell culture supernatant using Luminex 200 technology (FIG. 2H,I).

The test system of a further assay is HT-29. The assay is described as above. Type of assay: cell-based, human. The following applies: 1 μM or 5 μM, forty-eight hours. The procedure:
as §1, §2, §3

For `Cn1cc(C2=C(c3coc4ccc(F)cc34)C(=O)NC2=O)c2cc3c(cc21)OCO3` [elraglusib], in the assay on HCT-116, the GDF-15 secretion entry was “decreased secretion”, the GM-CSF secretion entry was “decreased secretion” and the VEGF secretion entry is “decreased secretion”. For the same compound, in the assay on HCT-116 (cell line not given), the CCL5/RANTES in supernatant entry is “downregulated”, the DcR3 in supernatant entry is reported as “downregulated”, the Fas in supernatant entry was “downregulated” and the “soluble PD-L1 (sPD-L1) in supernatant” value was “downregulated”. Also, in the assay with HT-29, the GDF-15 secretion entry is on record as “decreased secretion”, the GM-CSF secretion entry is reported as “decreased secretion” and the VEGF secretion entry is given as “decreased secretion”. Moreover, in the assay on HT-29 (cell line not given), the CCL5/RANTES in supernatant result was “downregulated”, the DcR3 in supernatant entry was “downregulated”, the Fas in supernatant result is “downregulated” and the “soluble PD-L1 (sPD-L1) in supernatant” value is reported as “downregulated”.
